Experimental data published in patent publication US7192906B2, “Substituted pyrazole derivatives, production process thereof, and herbicide compositions containing the derivatives” (SDS Biotech K.K., priority 2001, dated 2007).

Tests used:
Format in all cases: in vivo
[1] = tested on: Stellaria media; assay: Test Example 1 upland field foliage treatment; settings: Table 4, upland field foliage treatment, index 0-5
How it was run: (§1)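 Seeds sown in upland soil in pots and covered with about 1 cm soil; on day 14 after sowing, diluted wettable powder applied uniformly to leaves at 1 kg active ingredient per hectare. Weed control or crop phytotoxicity scored visually 21 days after application on a 0–5 scale (5 = ≥90%, 0 = <10%).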

[2] = tested on: Chenopodium album; assay: Test Example 1 upland field foliage treatment; settings: Table 4, upland field foliage treatment, index 0-5
How it was run: as §1

[3] = tested on: Setaria viridis; assay: Test Example 1 upland field foliage treatment; settings: Table 4, upland field foliage treatment, index 0-5
How it was run: as §1

[4] = tested on: Digitaria adscendens; assay: Test Example 1 upland field foliage treatment; settings: Table 4, upland field foliage treatment, index 0-5
How it was run: as §1

[5] = tested on: Stellaria media; assay: Test Example 2 upland soil treatment; settings: Table 5, upland soil treatment, index 0-5
How it was run: (§2)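 Score 0–5 read at day 21 (5 = ≥90% effect or phytotoxicity, 0 = <10%). Wettable powder diluted in water to 1 kg a.i./ha, applied uniformly to upland soil one day after sowing; seeds covered with ~1 cm soil.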

[6] = tested on: Chenopodium album; assay: Test Example 2 upland soil treatment; settings: Table 5, upland soil treatment, index 0-5
How it was run: as §2

[7] = tested on: Setaria viridis; assay: Test Example 2 upland soil treatment; settings: Table 5, upland soil treatment, index 0-5
How it was run: as §2

[8] = tested on: Digitaria adscendens; assay: Test Example 2 upland soil treatment; settings: Table 5, upland soil treatment, index 0-5
How it was run: as §2

[9] = tested on: Rice (Oryza sativa); assay: Test Example 3 paddy field treatment, crop phytotoxicity; settings: Table 6, paddy field treatment, transplanted rice, active ingredient 1 kg per hectare, 21st day after dropping, index 0-5
How it was run: (§3)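 Weed seeds sown in puddled paddy soil under 4 cm water, with two-leaf Koshihikari rice transplanted; 10 days later a wettable powder was applied to the water surface at 1 kg active ingredient/ha. Scored 21 days after application on a 0–5 scale (0 = <10%, 5 = ≥90% herbicidal effect or phytotoxicity).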

[10] = tested on: wheat (Triticum aestivum); assay: Test Example 1 upland field foliage treatment, crop phytotoxicity; settings: Table 4, upland field foliage treatment, index 0-5
How it was run: as §1

[11] = tested on: soybean (Glycine max); assay: as above; settings: Table 4, upland field foliage treatment, index 0-5
How it was run: as §1

[12] = tested on: wheat (Triticum aestivum); assay: Test Example 2 upland soil treatment, crop phytotoxicity; settings: Table 5, upland soil treatment, index 0-5
How it was run: as §2

[13] = tested on: soybean (Glycine max); assay: as above; settings: Table 5, upland soil treatment, index 0-5
How it was run: as §2

[14] = tested on: Monochoria vaginalis; assay: Test Example 3 paddy field treatment; settings: Table 6, paddy field treatment, active ingredient 1 kg per hectare, 21st day after dropping, index 0-5
How it was run: as §3

[15] = tested on: Ammannia multiflora; assay: Test Example 3 paddy field treatment; settings: Table 6, paddy field treatment, active ingredient 1 kg per hectare, 21st day after dropping, index 0-5
How it was run: as §3

[16] = tested on: Echinochloa crusgalli; assay: Test Example 3 paddy field treatment; settings: Table 6, paddy field treatment, active ingredient 1 kg per hectare, 21st day after dropping, index 0-5
How it was run: as §3

[17] = tested on: Scirpus juncoides; assay: Test Example 3 paddy field treatment; settings: Table 6, paddy field treatment, active ingredient 1 kg per hectare, 21st day after dropping, index 0-5
How it was run: as §3

Structure (SMILES)	Herbicidal activity SM: Stellaria media [1]	Herbicidal activity CA: Chenopodium album [2]	Herbicidal activity SV: Setaria viridis [3]	Herbicidal activity DA: Digitaria adscendens [4]	Herbicidal activity SM: Stellaria media [5]	Herbicidal activity CA: Chenopodium album [6]	Herbicidal activity SV: Setaria viridis [7]	Herbicidal activity DA: Digitaria adscendens [8]	Herbicidal activity (phytotoxicity) OS [9]	Herbicidal activity (phytotoxicity) TA: Wheat (Triticum aestivum) [10]	Herbicidal activity (phytotoxicity) GM: Soybean (Glycine max) [11]	Herbicidal activity (phytotoxicity) TA: Wheat (Triticum aestivum) [12]	Herbicidal activity (phytotoxicity) GM: Soybean (Glycine max) [13]	Herbicidal activity MV [14]	Herbicidal activity AM [15]	Herbicidal activity EC [16]	Herbicidal activity SJ [17]
CNC(=O)C(Cn1cc(C)c(-c2ccc(F)c(F)c2)n1)=NOC [Compound 59]	5 (herbicidal effect of not less than 90%, or phytotoxicity of 90% or more)	5 (herbicidal effect of not less than 90%, or phytotoxicity of 90% or more)	5 (herbicidal effect of not less than 90%, or phytotoxicity of 90% or more)	5 (herbicidal effect of not less than 90%, or phytotoxicity of 90% or more)	5 (herbicidal effect of not less than 90%, or phytotoxicity of 90% or more)	5 (herbicidal effect of not less than 90%, or phytotoxicity of 90% or more)	5 (herbicidal effect of not less than 90%, or phytotoxicity of 90% or more)	5 (herbicidal effect of not less than 90%, or phytotoxicity of 90% or more)	0 (herbicidal effect of not less than 0% and less than 10%, or phytotoxicity of 0% or more and less than 10%)	0 (herbicidal effect of not less than 0% and less than 10%, or phytotoxicity of 0% or more and less than 10%)	0 (herbicidal effect of not less than 0% and less than 10%, or phytotoxicity of 0% or more and less than 10%)	0 (herbicidal effect of not less than 0% and less than 10%, or phytotoxicity of 0% or more and less than 10%)	0 (herbicidal effect of not less than 0% and less than 10%, or phytotoxicity of 0% or more and less than 10%)	5 (herbicidal effect of not less than 90%, or phytotoxicity of 90% or more)	5 (herbicidal effect of not less than 90%, or phytotoxicity of 90% or more)	5 (herbicidal effect of not less than 90%, or phytotoxicity of 90% or more)	5 (herbicidal effect of not less than 90%, or phytotoxicity of 90% or more)
CNC(=O)C(Cn1cc(C)c(-c2ccc(OC(F)F)cc2)n1)=NOC [Compound 65]	5 (herbicidal effect of not less than 90%, or phytotoxicity of 90% or more)	5 (herbicidal effect of not less than 90%, or phytotoxicity of 90% or more)	5 (herbicidal effect of not less than 90%, or phytotoxicity of 90% or more)	5 (herbicidal effect of not less than 90%, or phytotoxicity of 90% or more)	5 (herbicidal effect of not less than 90%, or phytotoxicity of 90% or more)	5 (herbicidal effect of not less than 90%, or phytotoxicity of 90% or more)	5 (herbicidal effect of not less than 90%, or phytotoxicity of 90% or more)	5 (herbicidal effect of not less than 90%, or phytotoxicity of 90% or more)	0 (herbicidal effect of not less than 0% and less than 10%, or phytotoxicity of 0% or more and less than 10%)	0 (herbicidal effect of not less than 0% and less than 10%, or phytotoxicity of 0% or more and less than 10%)	0 (herbicidal effect of not less than 0% and less than 10%, or phytotoxicity of 0% or more and less than 10%)	0 (herbicidal effect of not less than 0% and less than 10%, or phytotoxicity of 0% or more and less than 10%)	0 (herbicidal effect of not less than 0% and less than 10%, or phytotoxicity of 0% or more and less than 10%)	5 (herbicidal effect of not less than 90%, or phytotoxicity of 90% or more)	5 (herbicidal effect of not less than 90%, or phytotoxicity of 90% or more)	5 (herbicidal effect of not less than 90%, or phytotoxicity of 90% or more)	5 (herbicidal effect of not less than 90%, or phytotoxicity of 90% or more)
CNC(=O)C(Cn1cc(C)c(-c2ccc(OC(F)(F)CF)cc2)n1)=NOC [Compound 67]	4 (herbicidal effect of not less than 70% and less than 90%, or phytotoxicity of 70% or more and less than 90%)	5 (herbicidal effect of not less than 90%, or phytotoxicity of 90% or more)	4 (herbicidal effect of not less than 70% and less than 90%, or phytotoxicity of 70% or more and less than 90%)	5 (herbicidal effect of not less than 90%, or phytotoxicity of 90% or more)	5 (herbicidal effect of not less than 90%, or phytotoxicity of 90% or more)	5 (herbicidal effect of not less than 90%, or phytotoxicity of 90% or more)	4 (herbicidal effect of not less than 70% and less than 90%, or phytotoxicity of 70% or more and less than 90%)	4 (herbicidal effect of not less than 70% and less than 90%, or phytotoxicity of 70% or more and less than 90%)	0 (herbicidal effect of not less than 0% and less than 10%, or phytotoxicity of 0% or more and less than 10%)	0 (herbicidal effect of not less than 0% and less than 10%, or phytotoxicity of 0% or more and less than 10%)	0 (herbicidal effect of not less than 0% and less than 10%, or phytotoxicity of 0% or more and less than 10%)	0 (herbicidal effect of not less than 0% and less than 10%, or phytotoxicity of 0% or more and less than 10%)	0 (herbicidal effect of not less than 0% and less than 10%, or phytotoxicity of 0% or more and less than 10%)	5 (herbicidal effect of not less than 90%, or phytotoxicity of 90% or more)	4 (herbicidal effect of not less than 70% and less than 90%, or phytotoxicity of 70% or more and less than 90%)	5 (herbicidal effect of not less than 90%, or phytotoxicity of 90% or more)	5 (herbicidal effect of not less than 90%, or phytotoxicity of 90% or more)
CNC(=O)C(Cn1cc(C)c(-c2ccc(F)c(OC)c2)n1)=NOC [Compound 77]	3 (herbicidal effect of not less than 50% and less than 70%, or phytotoxicity of 50% or more and less than 70%)	5 (herbicidal effect of not less than 90%, or phytotoxicity of 90% or more)	3 (herbicidal effect of not less than 50% and less than 70%, or phytotoxicity of 50% or more and less than 70%)	5 (herbicidal effect of not less than 90%, or phytotoxicity of 90% or more)	5 (herbicidal effect of not less than 90%, or phytotoxicity of 90% or more)	5 (herbicidal effect of not less than 90%, or phytotoxicity of 90% or more)	4 (herbicidal effect of not less than 70% and less than 90%, or phytotoxicity of 70% or more and less than 90%)	5 (herbicidal effect of not less than 90%, or phytotoxicity of 90% or more)	0 (herbicidal effect of not less than 0% and less than 10%, or phytotoxicity of 0% or more and less than 10%)	0 (herbicidal effect of not less than 0% and less than 10%, or phytotoxicity of 0% or more and less than 10%)	0 (herbicidal effect of not less than 0% and less than 10%, or phytotoxicity of 0% or more and less than 10%)	0 (herbicidal effect of not less than 0% and less than 10%, or phytotoxicity of 0% or more and less than 10%)	0 (herbicidal effect of not less than 0% and less than 10%, or phytotoxicity of 0% or more and less than 10%)	5 (herbicidal effect of not less than 90%, or phytotoxicity of 90% or more)	5 (herbicidal effect of not less than 90%, or phytotoxicity of 90% or more)	5 (herbicidal effect of not less than 90%, or phytotoxicity of 90% or more)	5 (herbicidal effect of not less than 90%, or phytotoxicity of 90% or more)
